Reference: publication PMC2692856, “Emodin targets the β-hydroxyacyl-acyl carrier protein dehydratase from Helicobacter pylori: enzymatic inhibition assay with crystal structural and thermodynamic characterization” (BMC Microbiology, 2009)
In brackets after ≈: the same amount, converted by molar mass.

What was measured:
[1] = tested on: H. pylori strains ATCC 43504; design: method as in PMID 18780820; settings: cited from earlier work
H. pylori strains SS1 = tested on: H. pylori strains SS1; design: method as in PMID 18565285; settings: cited from earlier work
HpFabZ [2] = target: T1, HpFabZ (Helicobacter pylori, UniProt Q5G940); test: SPR (Biacore 3000) binding assay of Emodin to immobilized HpFabZ; settings: 25°C
Method: The binding of Emodin to HpFabZ was analyzed by SPR technology based Biacore 3000 instrument (Biacore AB, Uppsala, Sweden). All the experiments were carried out using HBS-EP (10 mM HEPES pH 7.4, 150 mM NaCl, 3.4 mM EDTA and 0.005% surfactant P20) as running buffer with a constant flow rate of 30 μL/min at 25°C. HpFabZ protein, which was diluted in 10 mM sodium acetate buffer (pH 4.13) to a final concentration of 1.3 μM, was covalently immobilized on the hydrophilic carboxymethylated dextran matrix of the CM5 sensor chip (BIAcore) using standard primary amine coupling procedure. Emodin was dissolved in the running buffer with different concentrations ranging from 0.625 to 20 μM. All data were analyzed by BIAevaluation software, and the sensorgrams were processed by automatic correction for nonspecific bulk refractive index effects. The kinetic analyses of the Emodin/HpFabZ binding were performed based on the 1:1 Langmuir binding fit model according to the procedures described in the software manual.
SPR technology based Biacore 3000 instrument was used to investigate the kinetic feature of Emodin binding to HpFabZ.
The 1:1 Langmuir binding model was used to fit the kinetic parameters regarding the Emodin/HpFabZ binding process, in which the association rate constant (ka) and dissociation rate constant (kd) were fitted simultaneously by rate Equation 1,(1) [drawing 1]
Where, R represents the response unit, C is the concentration of the Emodin, Rmax stands for the maximal response. The equilibrium dissociation constant (KD) was determined by Equation 2.(2) [drawing 2]

HpFabZ [3] = target: T1, HpFabZ; test: ITC based assay of Emodin/HpFabZ binding; settings: 25°C
Method: ITC experiments were performed on a VP-ITC Microcalorimeter (Microcal, Northampton, MA, USA) at 25°C. HpFabZ was dialysed extensively against 20 mM Tris (pH 8.0), 500 mM NaCl and 1 mM EDTA at 4°C. Appropriate concentration of Emodin was prepared from a 50 mM stock in DMSO, and corresponding amount of DMSO (25%) was added to the protein solution to match the buffer composition. The reference power was set to 15 μCal/sec and the cell contents were stirred continuously at 300 rpm throughout the titrations. After an initial injection of Emodin (3 μL, not used for data fitting), 29 injections (6 μL each) were performed with a 3 min-delay between each injection, and then the heat changes were monitored. Blank titrations of Emodin into buffer were also performed to correct for the heats generated by dilution and mixing. The binding isotherm was fit by the single binding site model using a non-linear least squares method based on Origin (Microcal Software, Northampton, MA, USA).
To inspect the kinetic and thermodynamic characters regarding the inhibition of Emodin against HpFabZ enzyme, ITC technology based assay was performed. […] The ITC titration data in Table 2 has clearly established a 1:1 stoichiometry for HpFabZ-Emodin complex formation. Based on the obtained thermodynamic data (ΔH = -17.77 ± 1.11 kcal/mol, TΔS = -9.12 kcal/mol, ΔG = -8.65 kcal/mol), it was easily concluded that the enthalpy contributed favorably to the binding free energy in Emodin/HpFabZ interaction, indicating a significant enthalpy driven binding of Emodin to HpFabZ.

[4] = tested on: H. pylori strain ATCC 43504; test: Anti-H. pylori activity assay, MIC by standard agar dilution method; format: cell-based; settings: Helicobacter pylori, ATCC43504, 72 h, 3 days, 37°C, microaerobic
Method: (§1) The bacterial growth inhibition activity for Emodin was evaluated by using Paper Discus Method. DMSO and ampicillin paper were used as negative and positive control respectively. The minimum inhibitory concentrations (MIC) values were determined by the standard agar dilution method using Columbia agar supplemented with 10% sheep blood containing two-fold serial dilutions of Emodin. The plates were inoculated with a bacterial suspension (10^8 cfu/ml) in Brain Heart Infusion broth with a multipoint inoculator. Compound-free Columbia agar media were used as controls. Inoculated plates were incubated at 37°C under microaerobic conditions (85% N2, 10% CO2 and 5% O2) and examined after 3 days.
(§2) The inhibition activities of Emodin against H. pylori strains SS1 and ATCC 43504 were assayed according to the standard agar dilution method.

H. pylori strain SS1 = test: as above; format: cell-based; settings: Helicobacter pylori, SS1, 72 h, 3 days, 37°C, microaerobic
Method: as §1, §2

HpFabZ [5] = target: T1, HpFabZ; test: HpFabZ enzymatic inhibition assay (spectrophotometric, substrate crotonoyl-CoA); format: biochemical
Method: The expression, purification and enzymatic inhibition assay of HpFabZ enzyme were performed according to the previously published approach with slight modification. The compounds dissolved in 1% DMSO (Dimethyl sulfoxide) were incubated with the enzyme for 2 hours before the assay started. The IC50 value of Emodin was estimated by fitting the inhibition data to a dose-dependent curve using a logistic derivative equation. The inhibition type of Emodin against HpFabZ was determined in the presence of varied inhibitor concentrations. After 2h-incubation, the reaction was started by the addition of crotonoyl-CoA. The Ki value was obtained from Lineweaver-Burk double-reciprocal plots and subsequent secondary plots.
The recombinant HpFabZ enzyme was prepared according to our previously published report. The spectrophotomeric enzyme inhibition assay approach was used for randomly screening HpFabZ inhibitor against our lab in-house natural product library. In addition, to optimize the screening efficiency and creditability, the pH profile of HpFabZ and the potential effects of DMSO on enzymatic activity were investigated [see Additional files 1, 2 and 3]. As shown in Additional file 2: Fig. S1, the pH optimum of HpFabZ was 8.0 and 1% DMSO for dissolving the tested compound had no obvious effect on the enzymatic activity (Additional file 3: Fig. S2.)

T1 sequence (Q5G940 entry or part of it): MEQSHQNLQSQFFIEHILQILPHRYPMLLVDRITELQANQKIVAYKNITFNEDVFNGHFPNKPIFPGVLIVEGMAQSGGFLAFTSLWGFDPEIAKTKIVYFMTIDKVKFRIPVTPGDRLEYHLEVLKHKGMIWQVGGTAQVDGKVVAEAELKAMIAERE

O=c1c(O)c(-c2ccc(O)c(O)c2)oc2cc(O)cc(O)c12 [Quercetin]
MIC, H. pylori strains ATCC 43504 [1]: 100 µg/mL (≈ 331 µM)

O=C1C=CC(=O)c2c(O)cccc21 [Juglone]
MIC, H. pylori strains SS1 (H. pylori strains SS1): 5 µg/mL (≈ 28.7 µM)

Cc1cc(O)c2c(c1)C(=O)c1cc(O)cc(O)c1C2=O [Emodin, 3-methyl-1,6,8-trihydroxyanthraquinone]
Rmax, maximum analyte binding capacity (HpFabZ [2]; 1:1 Langmuir fit): 42.3 ± 1.51 RU | kd, dissociation rate constant (HpFabZ [2]; 1:1 Langmuir fit): 0.193 ± 0.0061 per s | Kd (HpFabZ [2]; HpFabZ immobilized on CM5 chip, read-out: KD, equilibrium dissociation constant determined by SPR): 4.59 µM | TΔS (HpFabZ [3]): -9.12 kcal/mol | ΔG (HpFabZ [3]): -8.65 kcal/mol | ΔH (HpFabZ [3]): -17.77 ± 1.11 kcal/mol | Kd (HpFabZ [3]; read-out: KD', equilibrium dissociation constant determined by ITC): 0.45 µM | N, stoichiometry of Emodin-HpFabZ complex (HpFabZ [3]; single binding site model): 1.07 ± 0.035 | MIC [4]: 10 µg/mL (≈ 37 µM) | MIC (H. pylori strain SS1): 5 µg/mL (≈ 18.5 µM) | IC50 (HpFabZ [5]; 2 h preincubation with enzyme, 1% DMSO): 9.7 ± 1 µM | Ki (HpFabZ [5]; Lineweaver-Burk and secondary plots, substrate crotonoyl-CoA, read-out: Ki, HpFabZ enzyme inhibition): 1.9 ± 0.3 µM | Inhibition type (HpFabZ [5]; versus substrate crotonoyl-CoA, double reciprocal plots): Competitive

COc1cc(O)c2c(c1)O[C@H](c1ccc(O)cc1)CC2=O [(S)-Sakuranetin]
MIC, H. pylori strains ATCC 43504 [1]: 25 µg/mL (≈ 87.3 µM)

O=c1cc(-c2ccc(O)cc2)oc2cc(O)cc(O)c12 [Apigenin]
MIC, H. pylori strains ATCC 43504 [1]: 25 µg/mL (≈ 92.5 µM)
